Laboratory results from PubChem BioAssay (NCI).
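Grown in 96-well plates, cells were treated for 48 hours with each compound at five concentrations. Insufficient inhibition: endpoint recorded as highest concentration tested. TGI: concentration producing complete growth inhibition.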

Columns and labels:
Assay in all cases: inhibition of tumour cell growth, NCI panel, 48 h
786-0 renal = test system: 786-0 renal
A549 NSCLC = test system: A549 NSCLC
BT-549 breast = test system: BT-549 breast
CAKI-1 renal = test system: CAKI-1 renal
CCRF-CEM leukemia = test system: CCRF-CEM leukemia
HL-60(TB) leukemia = test system: HL-60(TB) leukemia
KM12 colon = test system: KM12 colon
LOX IMVI melanoma = test system: LOX IMVI melanoma
M14 melanoma = test system: M14 melanoma
MDA-MB-435 = test system: MDA-MB-435
NCI-H23 lung = test system: NCI-H23 lung
OVCAR-4 ovarian = test system: OVCAR-4 ovarian
OVCAR-5 ovarian = test system: OVCAR-5 ovarian
OVCAR-8 ovarian = test system: OVCAR-8 ovarian
PC-3 prostate = test system: PC-3 prostate
RXF 393 renal = test system: RXF 393 renal
SK-MEL-28 melanoma = test system: SK-MEL-28 melanoma
SNB-19 CNS = test system: SNB-19 CNS
SR leukemia = test system: SR leukemia
UACC-62 melanoma = test system: UACC-62 melanoma

Compound	TGI (786-0 renal)	TGI (A549 NSCLC)	TGI (BT-549 breast)	TGI (CAKI-1 renal)	TGI (CCRF-CEM leukemia)	TGI (HL-60(TB) leukemia)	TGI (KM12 colon)	TGI (LOX IMVI melanoma)	TGI (M14 melanoma)	TGI (MDA-MB-435)	TGI (NCI-H23 lung)	TGI (OVCAR-4 ovarian)	TGI (OVCAR-5 ovarian)	TGI (OVCAR-8 ovarian)	TGI (PC-3 prostate)	TGI (RXF 393 renal)	TGI (SK-MEL-28 melanoma)	TGI (SNB-19 CNS)	TGI (SR leukemia)	TGI (UACC-62 melanoma)
Cc1nc2ccc(N=Nc3c(O)ccc4ccccc34)cc2[nH]1	54.4 µM	> 78.7 µM	59.7 µM	49.8 µM	> 58.3 µM	46.8 µM	> 100 µM	32.4 µM	> 81.5 µM	45.9 µM	> 100 µM	35.1 µM	> 100 µM	69.6 µM	48.1 µM	> 57.9 µM	> 100 µM	> 100 µM	55.4 µM	> 63.4 µM
Oc1c(Cl)ccc2cccnc12	51.4 µM	> 100 µM	> 100 µM	> 100 µM	2.4 µM	0.728 µM	> 100 µM	29.7 µM	> 100 µM	> 100 µM	> 100 µM	> 100 µM	> 100 µM	> 100 µM	> 100 µM	26.2 µM	> 100 µM	> 100 µM	13.5 µM	8.09 µM
Cc1cc2c(cc1C)C(=O)c1ncccc1C2=O	> 100 µM	> 100 µM	> 100 µM	> 100 µM	> 100 µM	30.6 µM	> 100 µM	> 100 µM	> 100 µM	34.4 µM	50.9 µM	> 100 µM	> 100 µM	> 100 µM	> 100 µM	> 100 µM	> 100 µM	> 100 µM	25 µM	> 100 µM
CC(C)(C)C1CCC2c3c([nH]c4ccccc34)C3C(=O)N(c4cccc(Cl)c4)C(=O)C3C2C1 (stereo not drawn)	22 µM	> 55.8 µM	41.1 µM	53.2 µM	> 91.8 µM	13 µM	14.5 µM	20.8 µM	28.3 µM	48.9 µM	25.3 µM	58.1 µM	30.3 µM	> 55.6 µM	36.9 µM	22.6 µM	32 µM	> 100 µM	> 36 µM	33.4 µM
N#CC(NC12CC3CC(CC(C3)C1)C2)c1ccccc1 (stereo not drawn)	> 100 µM	> 100 µM	> 100 µM	> 100 µM	> 100 µM	> 100 µM	> 100 µM	> 100 µM	> 100 µM	> 100 µM	> 100 µM	> 100 µM	> 100 µM	> 100 µM	> 100 µM	> 100 µM	> 100 µM	> 100 µM	> 100 µM	> 100 µM
CCC(C#N)N(Cc1ccc(CN(C(=O)c2ccccc2)C(C#N)CC)cc1)C(=O)c1ccccc1 (stereo not drawn)	50.2 µM	> 100 µM	72.7 µM	> 100 µM	51.1 µM	84.1 µM	67.7 µM	31.4 µM	> 100 µM	65.7 µM	> 100 µM	80.9 µM	> 100 µM	> 100 µM	> 100 µM	> 100 µM		> 100 µM	> 100 µM	60.1 µM
CCOC(=O)c1ccc(-c2cccs2)n1C	> 100 µM	> 100 µM	> 100 µM	> 100 µM	> 100 µM	> 100 µM	> 100 µM	> 100 µM	> 100 µM	> 100 µM	> 100 µM	> 100 µM	> 100 µM	> 100 µM	> 100 µM	> 100 µM	> 100 µM	> 100 µM	> 100 µM	> 100 µM
COc1ccc2cc(-c3ccc(OC)c(OC)c3)c(=O)oc2c1	> 100 µM	> 100 µM	> 100 µM	> 100 µM	> 100 µM	> 100 µM	> 100 µM	> 100 µM	> 100 µM	> 100 µM	> 100 µM	> 100 µM	> 100 µM	> 100 µM	> 100 µM	68.3 µM	> 100 µM	> 100 µM	> 100 µM	> 100 µM
C/C(=N/NC(=S)N1CCCCCC1)c1ccccc1O	39.3 µM	> 100 µM	> 100 µM	> 96.2 µM	> 30.8 µM	7.8 µM	> 53.7 µM	> 78.7 µM	11 µM	> 100 µM	> 100 µM	> 33.9 µM	> 100 µM	> 100 µM	> 100 µM	> 93 µM	> 100 µM	> 100 µM	4.57 µM	17.7 µM
COC(OC)C1(c2ccccc2)Oc2ccccc2C1=O (stereo not drawn)	> 100 µM	> 100 µM	> 100 µM	> 100 µM	> 100 µM	> 100 µM	> 100 µM	> 100 µM	> 100 µM	> 100 µM	> 100 µM	> 100 µM	> 100 µM	> 100 µM	> 100 µM	> 100 µM	> 100 µM	> 100 µM	> 100 µM	> 100 µM
CC(C)Cc1ccc(C(C)/C=C2\CCC(CN3CCOCC3)C2=O)cc1 (stereo not drawn)	3.21 µM	34.8 µM	35.2 µM	33.5 µM	17.8 µM	20.7 µM	16.9 µM	7.73 µM	15.9 µM	20.2 µM	29.4 µM	33.4 µM	35.9 µM	12.3 µM	25.4 µM	22 µM	22.8 µM	21.4 µM	13.8 µM	25.6 µM
Cc1cc(C)nc(NC(=S)Nc2cccc(Cl)c2)c1	> 100 µM	> 100 µM	> 100 µM	> 86.5 µM	> 100 µM	> 100 µM	> 100 µM	> 100 µM	> 100 µM	> 100 µM	> 100 µM	> 100 µM	> 100 µM	> 100 µM	> 100 µM	> 100 µM	> 100 µM	> 100 µM	> 100 µM	> 100 µM
O=C(O)c1cnccc1-c1cc(=O)[nH]n1-c1ccccc1	> 100 µM	> 100 µM	> 100 µM	> 100 µM	> 100 µM	> 87 µM	> 100 µM	> 100 µM	> 100 µM	> 100 µM	> 100 µM	> 100 µM	> 100 µM	> 100 µM	> 100 µM	> 100 µM	> 78.2 µM	> 100 µM	> 100 µM	> 100 µM
COc1ccc(-c2cn3c(nc4ccccc43)c(C)n2)cc1	> 100 µM	> 100 µM	> 100 µM	> 100 µM	> 100 µM	> 100 µM	> 100 µM	> 100 µM	> 100 µM	> 100 µM	> 100 µM	> 100 µM	> 100 µM	> 96.6 µM	> 100 µM	> 88.9 µM	> 100 µM	> 100 µM	> 100 µM	> 91.5 µM
C#CCn1c(=O)c(C)cn(/C(=C/C(=O)OCC)C(=O)OCC)c1=O	19.4 µM	32.4 µM	20.4 µM	3.18 µM	13.5 µM	> 100 µM	32 µM	29.8 µM	14 µM	20.5 µM	23.4 µM	19.3 µM	16 µM	5.56 µM	25.7 µM	2.01 µM	19.7 µM	28.6 µM	> 100 µM	24.8 µM
N#Cc1cc2c(n(C3OC(CO)C(O)C(O)C3O)c1=S)CCCCC2 (stereo not drawn)	> 100 µM	> 100 µM	> 100 µM	> 100 µM	> 100 µM	> 100 µM	> 100 µM	> 100 µM	> 100 µM	> 100 µM	> 100 µM	> 100 µM	> 100 µM	> 100 µM	> 100 µM	> 100 µM	> 100 µM	> 100 µM	> 100 µM	> 100 µM
O=[N+]([O-])c1ccccc1S(=O)(=O)c1ccccc1[N+](=O)[O-]	> 100 µM	> 56.2 µM	> 100 µM	> 100 µM	> 100 µM	> 100 µM	> 100 µM	> 100 µM	> 100 µM	> 100 µM	> 100 µM	> 100 µM	> 100 µM	> 56.2 µM	> 100 µM	83.8 µM	> 100 µM	> 97.7 µM	> 100 µM	> 100 µM
Cn1c(=O)c2[nH]c(/N=N\n3ccc4ccccc43)nc2n(C)c1=O	> 100 µM	> 100 µM	> 100 µM	> 100 µM	> 100 µM	> 100 µM	> 100 µM	> 100 µM	> 100 µM	> 100 µM	> 100 µM	> 100 µM	> 100 µM	> 100 µM	> 100 µM	> 100 µM	> 100 µM	> 100 µM	> 100 µM	> 100 µM
COC(=O)/C=C1/OC(c2ccc(Br)cc2)=C(Br)C1=O	6.31 µM	33.6 µM	11.7 µM	6.32 µM	6.22 µM	7.87 µM	22.4 µM	8.4 µM	10.8 µM	20.9 µM	17.1 µM	11.6 µM	12.5 µM	10.5 µM	17.5 µM	11.1 µM	27.2 µM	28.9 µM	3.31 µM	20.5 µM
OCC1C(O)C(O)[C@@H]2SCCN12 (stereo partly drawn)	> 100 µM	> 100 µM	> 100 µM	> 100 µM	> 100 µM	> 100 µM	> 100 µM	> 100 µM	> 100 µM	> 100 µM	> 100 µM	> 100 µM	> 100 µM	> 100 µM	> 100 µM	> 100 µM	> 100 µM	> 100 µM	> 100 µM	> 100 µM
COc1cccc2c3cccc(OC)c3c3[nH]cnc3c12	2.98 µM	3.08 µM	31.6 µM	37.9 µM	3.4 µM	2.38 µM	4.56 µM	3.52 µM	3.08 µM	4.1 µM	3.37 µM	12 µM	10 µM		4.6 µM	3.42 µM	9.53 µM	26.9 µM	5.15 µM	30.3 µM
CCN(CC)CC(O)CNc1ccc(NCC(O)CCl)c2c1C(=O)c1ccccc1C2=O (stereo not drawn)	15.9 µM	24.4 µM	23.5 µM	21.9 µM	11.4 µM	11.3 µM	17 µM	2.17 µM	9.38 µM	18.6 µM	18.1 µM	16.1 µM	29.2 µM	20.6 µM	19.8 µM	26.6 µM	25.4 µM	25.9 µM	11.6 µM	29.2 µM
NC(N)=NS(=O)(=O)c1ccc(Nc2c3ccccc3nc3ccc(C(=O)Nc4ccc(S(N)(=O)=O)cc4)cc23)cc1	> 100 µM	> 100 µM	> 100 µM	> 100 µM	> 100 µM	> 100 µM	> 100 µM	> 100 µM	> 100 µM	> 100 µM	> 100 µM	> 100 µM	> 100 µM	> 100 µM	> 100 µM	> 100 µM	> 100 µM	> 100 µM	> 100 µM	> 100 µM
C/C=C1/CN2CCC34C5=CC(=O)C(c6cc7c(cc6OC)N(C)C6=C(C(=O)OC)CC8(CC)CCCN9CCC67C98)=CC5=NC23CCC1C4C(=O)OC (stereo not drawn)	24.9 µM	30.3 µM	29.7 µM	21.9 µM	5.99 µM	4.22 µM	30.3 µM	31 µM	24.8 µM	26 µM	28.2 µM	27.1 µM	16.8 µM	30.2 µM	26 µM	23.3 µM	31 µM	30.3 µM	6.63 µM	31.1 µM
